In US20060233743A1, “Compositions and methods of therapy” (priority 2002, published 2006):

Key:
[1] = test system: cells of the immune system; experiment: release of IL-10 from cells of the immune system in the presence of GMCSF; assay type: cell-based
[2] = test system: PDE; conditions: cited from earlier work
[3] = test system: U937 cells; experiment: Example 5: IL-10 and TNFα mRNA in U937 cells; assay type: cell-based, human; conditions: differentiation, PMA 2×10^−7 M
Procedure: U937 (human monocyte cell line) cells were grown in RPMI (PAA Laboratories) medium with 10% fetal calf serum added (PAA Laboratories). Cells were treated with prostaglandin E2 at 10^−6 Molar, Rolipram 10^−6 Molar, Forskolin 50×10^−6 Molar with or without GMCSF at 5 ng/ml for 48 hours. Cells were pelleted and the mRNA was extracted with Tri reagent (Sigma, Poole, UK). Total RNA was obtained by addition of chloroform and subsequent isopropanol precipitation. RNA was reverse transcribed with reverse transcriptase (Applied Biosystems) and random hexamers (Applied Biosystems). Probes and primers for amplification and detection of IL-10 were designed using Primer Express (Applied Biosystems) and are as follows:
As for Example 4 but mRNA for TNFα alpha is also included.
Data is shown as the ratio of IL-10 mRNA/TNFα mRNA. P═PMA=Phorbol myristoyl acetate; F=Fsk=Forskolin, g=GMCSF, C=vehicle control.

[4] = test system: type IV PDE; conditions: type IV PDE inhibitor; cited from earlier work

19-hydroxy PGE
stimulation of IL-10 [1]: increased strikingly

CC(C)Cn1c(=O)n(C)c(=O)c2[nH]cnc21 [IBMX, 3-isobutyl-1-methylxanthine]
IC50 ([2]; non-specific PDE inhibitor): 2 to 50 µM

CCCCC[C@H](O)/C=C/[C@H]1[C@H](O)CC(=O)[C@@H]1C/C=C\CCCC(=O)O [PGE, prostaglandin E2]
stimulation of IL-10 [1]: increased strikingly

CCCCCCCCCCCCCC(=O)O[C@@H]1[C@@H](C)[C@@]2(O)[C@@H](C=C(CO)C[C@]3(O)C(=O)C(C)=C[C@@H]23)[C@@H]2C(C)(C)[C@]12OC(C)=O [PMA, Phorbol myristoyl acetate]
IL-10 mRNA [3]: increased | TNFα mRNA ([3]; Forskolin 50×10^−6 Molar, GMCSF 5 ng/ml): also increased

CCCCOc1cc(CC2CNC(=O)N2)ccc1OC (centres unmarked) [Ro-20-1724, 4-[3-butoxy-4-methoxybenzyl]-2-imidazolidinone]
IC50 [4]: 2 µM

COc1ccc(C2CNC(=O)C2)cc1OC1CCCC1 (centres unmarked) [rolipram, 4-[3-cyclopentyloxy-4-methoxyphenyl]-2-pyrrolidinone]
IC50 [4]: 0.8 µM

Cn1c(=O)c2[nH]cnc2n(C)c1=O [theophylline]
times less effective than rolipram ([2]; non-selective inhibitor compared with rolipram): 30 times
